{
  "source": "patent US9550978B2",
  "about": "“Isolation and functional identification of cells” (CAPROTEC BIOANALYTICS GMBH, priority 2010, dated 2017)",
  "key": {"HT-1080 cells [1]": {"system": "HT-1080 cells", "assay": "Marimastat-specific tagging of adherent cells by capture compound coated magnetic particles (Example 2a)", "assay_type": "cell-based, human", "details": "culture \"con\", with free marimastat competitor; light microscopy", "excerpt": "Cell culture supernatant (10% heat inactivated fetal calf serum (PAA Laboratories GmbH), 1× Penicillin/Streptomycin (PAA) in DMEM (Dulbecco's Modified Eagle Medium) High Glucose (4.5 g/l) with stable glutamin (PAA)) was removed from two cell cultures of adherent fibrosarcoma cells (cell line HT-1080 (ACC 315 Deutsche Sammlung von Mikroorganismen and Zellkulturen DSMZ Braunschweig; densely grown; 3.5 cm petri dish; passage 9) and added to further cell culture supernatant from a larger culture. The petri dish was closed to avoid drying of the cells.\n20 μl 10 mg/ml strepatavidin coated magnetic particles of 1 μm diameter (Dynabeads MyOne Steptavidin C1 (Dynal)) (streptavidin magnetic particles or particles in the following) were mixed with 10 μl 100 μM marimastat capture compound V (caprotec bioanalytics GmbH)\n[drawing 4] and incubated 10 min at room temperature. The particles were collected at the inner vial wall by applying a strong magnet (caproMag, caprotec bioanalytics GmbH, containing a 150×9×7 mm neodymium magnet (NdFeB) of quality N52 (1.43 Tesla)), and the supernatant was discarded. The particles were resuspended in 500 μl HT-1080 cell culture supernatant, collected magnetically anew and resuspended in 200 μl water, giving a 1 mg/ml marimastat capture compound-particle suspension. […]"}, "HT-1080 cells [2]": {"system": "HT-1080 cells", "assay": "Method 2: cell tagging with capture compound first, then streptavidin magnetic particles (Example 2b)", "assay_type": "cell-based, human", "details": "culture \"con\", free marimastat competitor added first", "experimental": "Cell culture supernatant of two cell cultures of adherent fibrosarcoma cells of cell line HT-1080 was prepared as described above (example 2a).\nThe cultures were spiked with 400 μl cell culture supernatant each. “Ver” received 20 μl water, control “con” received 20 μl 10 mM free marimastat (competitor), both cultures were swayed for mixing and incubated 3 min at room temperature, carefully keeping the cell layer wet at all times. During this step, the free marimastat in culture “con” binds to marimastat-binding proteins or protein complexes on the surface of cells and blocks their binding sites, preventing marimastat capture compounds from binding during the subsequent step. 2 μl 100 μmol/l marimastat capture compound was added to each culture, shaken gently and incubated 5 min at room temperature. Binding of the marimastat capture compound only happens on the cell surface proteins in culture “ver” (which are not blocked). The supernatant was removed from each, both cultures were washed with 400 μl fresh cell culture supernatant twice to remove excess marimastat capture compound, and 400 μl fresh cell culture supernatant was added each. 1 μl of 10 mg/ml strepatavidin coated magnetic particles of 1 μm diameter (Dynabeads MyOne Steptavidin C1 (Dynal)), was added to each culture, homogenized by swaying and incubated 30 min at room temperature. […]"}, "HT-1080 cells [3]": {"system": "HT-1080 cells", "assay": "Specific magnetic isolation of selectively tagged cells (Example 3)", "assay_type": "cell-based, human", "details": "control \"con\", free marimastat competitor", "experimental": "After tagging and washing (method 2, see example 2b) the supernatant was removed from cultures “ver” and “con” and the cultures were treated with 200 μl non-enzymatic cell dissociation solution (Sigma), followed by 10 min incubation at room temperature. […] The cells were moved to two 200 μl PCR vials labelled “ver” and “con”, respectively."}, "HT-1080 cells [4]": {"system": "HT-1080 cells", "assay": "Immobilization of cells from suspension on streptavidin coated multititer plates (Example 4)", "assay_type": "cell-based, human", "details": "mean of three samples", "experimental": "HT-1080 cells (see above) were treated for 30 min in cell culture medium with calcein AM to fluorescently stain the cytosol and were provided in suspension (obtained by scraping off the adherent cells using a cell spatula) at a final concentration of ˜0.5*10^6/ml in culture medium. White blood cells (WBC) freshly obtained from a donor by lysis of erythrocytes and subsequent washing and resuspension were adjusted to a final concentration of ˜5*10^6/ml in phosphate buffered saline (PBS). 12-well multititer plates (streptavidin coated) were used for cell immobilization.\nSamples of HT-1080 cells to be used as controls were treated with adjusted to 50 μmol/l free marimastat in medium by adding a stock solution (10 mM) of the competitor (samples marked “C”). Non-competitor verum samples are marked “A”.\nSamples treated with marimastat capture compound in solution were adjusted to 0.5 μmol/l capture compound in medium from 20 μmol/l stock solution (samples labelled “ind”), or attached to the capture compound-treated streptavidin-coated surface (samples labelled “dir”).\nFor determining the influence on binding by activating the reactivity function by UV irradiation (samples labelled “UV”) in samples for indirect binding (first capture compound attaching to cells, then cells binding to surface), cells were irradiated for 1 min by a near UV laboratory source (λmax=310 nm, caproBox, caprotec bioanalytics GmbH, Berlin) in an uncoated well (or not for samples without UV irradiation), collected, spun down, washed, and transferred to a streptavidin-coated well (incubation time˜3 h). Samples for direct binding were brought into capture compound coated wells (prepared as described below) directly (incubation time˜3 h) and UV-irradiated therein (or not for samples without UV irradiation). For loading the streptavidin-coated microtiter plates with capture compound, the wells were rinsed repeatedly for 10 min with 10 μl of 20 μM marimastat capture compound per well in 200 μl PBS at room temperature; the supernatant was discarded and the wells were washed with PBS.\nThe medium over the cells bound to the surface was mainly removed (a minimum rest was left to cover the cells and not let the cells dry) and all wells were washed carefully two times with 1 ml medium. HT-1080 cells were counted by their calcein AM fluorescence using a Cellavista system. Values below are adjusted for HT-1080 cell numbers delivered onto the well (1.9*10^5)."}, "[5]": {"target": "T1, marimastat-binding protein on the cell surface of HT-1080 cells (Homo sapiens, UniProt P50281)", "T1 construct": "densely grown with adherent HT-1080 cells; endogenous in cells; host or cells: HT-1080 cells (adherent, not recombinant)", "assay": "Photochemical crosslink on cell surface, detection by streptavidin-horseradish peroxidase blot (Example 5a)", "details": "sample \"C\": 0.5 mmol/l marimastat competitor, UV irradiated", "experimental": "Five times three sterile petri dishes with 3.5 cm diameter were densely grown with adherent HT-1080 cells (passage 10, see example 2 for medium and conditions). The cell culture supernatant was collected and 400 μl of this supernatant was again applied onto the cells such that the cells were covered with a layer of cell culture supernatant. Three of the petri dishes were labeled, respectively, “A”, “C”, “PD”, “PDC” and “noCC”. To “A”, “PD” and “noCC” were added 20 μl ultrapure water, respectively. To “C” and “PDC” were added 20 μl 10 mmol/l marimastat, respectively (0.5 mmol/l final concentration) and homogenized by swaying. To “A”, “C”, “PD” and “PDC” were added 2 μl 100 μmol/l marimastat capture compound (0.5 μmol/l final concentration) and homogenized by swaying. After a 2 min incubation, cells with supernatant of petri dishes “A”, “C” and “noCC” (open lids) were irradiated for 1 min with UV light (λmax=310 nm, caproBox, caprotec Bioanalytics GmbH, Berlin). Cells with supernatant of petri dishes “PD” and “PDC” were not irradiated but otherwise treated the same (incubated in caproBox for 1 min without irradiation). The supernatant was collected and discarded (in a repetition experiment, this supernatant was also analyzed as described in example 5b). […]"}, "MMP14": {"target": "T2, MMP14 (Homo sapiens, UniProt P50281)", "T2 construct": "densely grown with adherent HT-1080 cells; endogenous in cells; host or cells: HT-1080 cells (adherent, not recombinant)", "assay": "Capture Compound Mass Spectrometry (CCMS) identification of the marimastat-binding protein (Example 5b)", "details": "excess marimastat competitor", "experimental": "In a repetition of the experiment described in example 5a, the magnetic particles after the wash buffer and water wash steps (end of 5a.ii) were additionally washed six times with 200 μl 80% acetonitrile and once with 200 μl ultrapure water. The proteins captured on the particles were digested by addition of 9 μl 50 mmol/l ammonium bicarbonate and 1 μl 0.5 mg/ml trypsin (Sequencing Grade, Roche, ProdNo. 11047841001) in 1 mmol/l HCl. The particles were kept in suspension in this solution by shaking (2000 rpm) at 37° C. over night. After magnetically separating the particles, the supernatant was evaporated and the contained tryptic peptides were analyzed by nanoLC-MS/MS after dissolving them in 0.1% formic acid (equipment: Easy-nLC liquid chromatography system; Proxeon Biosystems A/S and LTQ Orbitrap Velos mass spectrometer; Thermo Scientific). The peptide and protein identification by automated sequence database search was performed on the one hand using the search algorithms SEQUEST (implemented in the Proteome Discoverer software 1.2.0.208, Thermo Scientific) and X!Tandem (The Global Proteome Machine Organization; version 2007.01.01.1, implementiert in the Scaffold software, version 3_00_03, Proteome Software Inc.) or on the other hand using MaxQuant (version 1.1.1.25, Cox, J. and Mann, M. (2008) Nat Biotechnol 26, 1367-72.) for label-free quantification of proteins. […]"}},
  "data": [
    {"smiles": "CNC(=O)[C@@H](NC(=O)[C@H](CC(C)C)[C@H](O)C(=O)NO)C(C)(C)C", "note": "[marimastat]", "values": [
      {"measurement": "tagging of cells on their surface by particles after washing", "setting": "HT-1080 cells [1]", "value": "not marked, or to only very little extent"},
      {"measurement": "particle tagging of cells after washing", "setting": "HT-1080 cells [2]", "value": "little or no particles are visible"},
      {"measurement": "retention of tagged cells at vial wall by magnet", "setting": "HT-1080 cells [3]", "value": "mostly sunk to the bottom of the vial"},
      {"measurement": "Percent input cells recovered", "setting": "HT-1080 cells [4]; C dir (no UV): direct binding, marimastat excess competitor, no UV", "value": "14.5 (standard deviation of Percent"},
      {"measurement": "Percent input cells recovered", "setting": "HT-1080 cells [4]; C dir UV: direct binding, marimastat excess competitor, UV activated", "value": "7.9 (standard deviation of Percent"},
      {"measurement": "Percent input cells recovered", "setting": "HT-1080 cells [4]; C ind (no UV): indirect binding, marimastat excess competitor, no UV", "value": "1.1 (standard deviation of Percent"},
      {"measurement": "Percent input cells recovered", "setting": "HT-1080 cells [4]; C ind UV: indirect binding, 50 μmol/l free marimastat competitor, UV activated", "value": "0.7 (standard deviation of Percent"},
      {"measurement": "blot signal of protein photochemically crosslinked with the capture compound", "setting": "[5]", "value": "the signal is absent"},
      {"measurement": "MMP14 capture in presence of competitor (MaxQuant analysis)", "setting": "MMP14", "value": "completely suppressed"}
    ]}
  ]
}
